Measured values published in the supplement of paper PMC4862054.
“And” between values parts separate entries of the source, which are not always exact repeats. Equal values may be shown once.

How the values were obtained:
Conditions in all cases: incubation time: 72 h
DU-4475 [1] = assay: drug sensitivity score (DSS), CellTiter-Blue viability (DSS (AUC-based score)); higher = stronger viability inhibition; extreme values may be limits of the assay
Protocol: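 DSRT with the CellTiter-Blue (resazurin reduction) viability readout, fluorescence 560/590 nm, 72 h incubation. Plates were normalised to DMSO and benzethonium chloride controls. DSS is computed from the area under the fitted dose-response curve (5 or 9 concentrations).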

Hs578T = assay: normalised viability (% of control), CellTiter-Blue; higher = more viable cells (about 100 = DMSO control)
Protocol: (§1)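 DSRT, CellTiter-Blue viability, 72 h incubation. Signal is normalised to DMSO and benzethonium chloride controls. Value is the normalised response at dose 3.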

HCC1937 = assay: as above
Protocol: as §1

CAL-51 = assay: as above
Protocol: as §1

HDQ-P1 = assay: as above
Protocol: as §1

SK-BR-3 = assay: as above
Protocol: as §1

CAL-85-1 = assay: as above
Protocol: as §1

MFM-223 = assay: as above
Protocol: as §1

HCC1599 = assay: as above
Protocol: as §1

MDA-MB-453 = assay: as above
Protocol: as §1

DU-4475 [2] = assay: as above
Protocol: as §1

MDA-MB-231 = assay: as above
Protocol: as §1

HCC1143 = assay: as above
Protocol: as §1

BT-549 = assay: as above
Protocol: as §1

CAL-148 = assay: as above
Protocol: as §1

MDA-MB-436 = assay: as above
Protocol: as §1

MDA-MB-468 = assay: as above
Protocol: as §1

BT-474 = assay: as above
Protocol: as §1

CAL-120 = assay: as above
Protocol: as §1

## C[C@@H]1C=C2C(=O)O[C@@H]3CC[C@H](C1)[C@]23O [Galiellalactone]
DU-4475 [1]
  drug sensitivity score: 0
Hs578T; 500 nM
  normalised viability: 101%
HCC1937; 500 nM
  normalised viability: 90.9%
CAL-51; 50 nM
  normalised viability: 106%
HDQ-P1; 50 nM
  normalised viability: 113%
SK-BR-3; 500 nM
  normalised viability: 96.4%
CAL-85-1; 50 nM
  normalised viability: 97.4%
MFM-223; 500 nM
  normalised viability: 92.8%
HCC1599; 500 nM
  normalised viability: 91.1%
MDA-MB-453; 50 nM
  normalised viability: 110%
DU-4475 [2]; 50 nM
  normalised viability: 117%
MDA-MB-231; 500 nM
  normalised viability: 91.8%
HCC1143; 500 nM
  normalised viability: 106%
BT-549; 500 nM
  normalised viability: 105%
CAL-148; 50 nM
  normalised viability: 104%
MDA-MB-436; 500 nM
  normalised viability: 90.1%
MDA-MB-468; 500 nM
  normalised viability: 105%
BT-474; 500 nM
  normalised viability: 136%
CAL-120; 500 nM
  normalised viability: 85.6%

## COC1=C2C[C@@H](C)C[C@H](OC)[C@H](O)[C@@H](C)/C=C(\C)[C@H](OC(N)=O)[C@@H](OC)/C=C\C=C(/C)C(=O)NC(=CC1=O)C2=O [Geldanamycin]
DU-4475 [1]
  drug sensitivity score: 22.5
Hs578T; 100 nM
  normalised viability: 56.8%
HCC1937; 100 nM
  normalised viability: 31.3%
CAL-51; 10 nM
  normalised viability: 104%
HDQ-P1; 10 nM
  normalised viability: 109%
SK-BR-3; 100 nM
  normalised viability: 22.8%
CAL-85-1; 10 nM
  normalised viability: 105%
MFM-223; 100 nM
  normalised viability: 50.6%
HCC1599; 100 nM
  normalised viability: 83.9%
MDA-MB-453; 10 nM
  normalised viability: 120%
DU-4475 [2]; 10 nM
  normalised viability: 119%
MDA-MB-231; 100 nM
  normalised viability: 31.4%
HCC1143; 100 nM
  normalised viability: 44.3%
BT-549; 100 nM
  normalised viability: 39.3%
CAL-148; 10 nM
  normalised viability: 104%
MDA-MB-436; 100 nM
  normalised viability: 20%
MDA-MB-468; 100 nM
  normalised viability: 33.8%
BT-474; 100 nM
  normalised viability: 33.6%
CAL-120; 100 nM
  normalised viability: 25.1%

## O=P(O)(NCCCl)NCCCl [Ifosfamide mustard]
DU-4475 [1]
  drug sensitivity score: 0
Hs578T; 100 nM
  normalised viability: 72.2%
HCC1937; 100 nM
  normalised viability: 100%
CAL-51; 10 nM
  normalised viability: 107%
HDQ-P1; 10 nM
  normalised viability: 122%
SK-BR-3; 100 nM
  normalised viability: 86.2%
CAL-85-1; 10 nM
  normalised viability: 101%
MFM-223; 100 nM
  normalised viability: 95.2%
HCC1599; 100 nM
  normalised viability: 117%
MDA-MB-453; 10 nM
  normalised viability: 106%
DU-4475 [2]; 10 nM
  normalised viability: 99.5%
MDA-MB-231; 100 nM
  normalised viability: 95.6%
HCC1143; 100 nM
  normalised viability: 116%
BT-549; 100 nM
  normalised viability: 106%
CAL-148; 10 nM
  normalised viability: 104%
MDA-MB-436; 100 nM
  normalised viability: 98.3%
MDA-MB-468; 100 nM
  normalised viability: 100%
BT-474; 100 nM
  normalised viability: 112%
CAL-120; 100 nM
  normalised viability: 92.3%

## CS(=O)(=O)CCNCc1ccc(-c2ccc3ncnc(Nc4ccc(OCc5cccc(F)c5)c(Cl)c4)c3c2)o1 [Lapatinib]
DU-4475 [1]
  drug sensitivity score: 0
HCC1937; 100 nM
  normalised viability: 97.1% and 106%
CAL-51; 10 nM
  normalised viability: 116% and 104%
HDQ-P1; 10 nM
  normalised viability: 102% and 124%
SK-BR-3; 100 nM
  normalised viability: 34.6% and 32.9%
CAL-85-1; 10 nM
  normalised viability: 94.6% and 101%
MFM-223; 100 nM
  normalised viability: 94% and 92.9%
HCC1599; 100 nM
  normalised viability: 93.9% and 94.5%
MDA-MB-453; 10 nM
  normalised viability: 95.8% and 83.7%
DU-4475 [2]; 10 nM
  normalised viability: 111% and 109%
HCC1143; 100 nM
  normalised viability: 82.1% and 95.4%
BT-549; 100 nM
  normalised viability: 85.1% and 107%
CAL-148; 10 nM
  normalised viability: 86% and 86.5%
MDA-MB-436; 100 nM
  normalised viability: 95.6% and 116%
MDA-MB-468; 100 nM
  normalised viability: 86.8% and 97.8%
BT-474; 100 nM
  normalised viability: 51.4% and 56.8%
CAL-120; 100 nM
  normalised viability: 84.9% and 101%

## Cn1cnc2c(F)c(Nc3ccc(Br)cc3F)c(C(=O)NOCCO)cc21 [MEK-162]
DU-4475 [1]
  drug sensitivity score: 16
Hs578T; 10 nM
  normalised viability: 81.5%
HCC1937; 10 nM
  normalised viability: 95.1%
CAL-51; 1 nM
  normalised viability: 111%
HDQ-P1; 1 nM
  normalised viability: 114%
SK-BR-3; 10 nM
  normalised viability: 83.4%
CAL-85-1; 1 nM
  normalised viability: 98.1%
MFM-223; 10 nM
  normalised viability: 87.9%
HCC1599; 10 nM
  normalised viability: 111%
MDA-MB-453; 1 nM
  normalised viability: 113%
DU-4475 [2]; 1 nM
  normalised viability: 97.6%
MDA-MB-231; 10 nM
  normalised viability: 92.5%
HCC1143; 10 nM
  normalised viability: 80.6%
BT-549; 10 nM
  normalised viability: 107%
CAL-148; 1 nM
  normalised viability: 91.5%
MDA-MB-436; 10 nM
  normalised viability: 126%
MDA-MB-468; 10 nM
  normalised viability: 98%
BT-474; 10 nM
  normalised viability: 114%
CAL-120; 10 nM
  normalised viability: 92.2%
